Columns and labels:
[1] = molecular target: T1, calcitonin receptor (CTR) (Homo sapiens, UniProt P30988); experiment: cAMP accumulation assay, U2OS Red cAMPNomad-CALCR cell line; format: cell-based; parameters: expressed in transfected cells; host or cells: U2OS Red cAMPNomad-CALCR; conditions: U2OS Red cAMPNomad-CALCR cells; for EC50: overnight incubation
T1 sequence (P30988 25-474): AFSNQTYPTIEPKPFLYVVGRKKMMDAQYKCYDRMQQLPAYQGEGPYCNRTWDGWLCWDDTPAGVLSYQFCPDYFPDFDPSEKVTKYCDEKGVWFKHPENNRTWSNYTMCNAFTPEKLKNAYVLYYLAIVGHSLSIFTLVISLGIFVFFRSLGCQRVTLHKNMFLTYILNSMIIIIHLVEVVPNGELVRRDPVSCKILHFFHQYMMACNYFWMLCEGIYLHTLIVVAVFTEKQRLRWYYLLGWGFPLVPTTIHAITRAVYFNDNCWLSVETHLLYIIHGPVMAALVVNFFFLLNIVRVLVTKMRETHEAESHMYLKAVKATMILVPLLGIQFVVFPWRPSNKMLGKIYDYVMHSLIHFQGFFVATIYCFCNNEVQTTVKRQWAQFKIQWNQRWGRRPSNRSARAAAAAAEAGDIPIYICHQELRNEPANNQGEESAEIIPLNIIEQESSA

[2] = Degradation in simulated gastric fluid (SGF); format: in vitro ADME; conditions: pH 1.3, 37 °C; for half-life: simulated gastric fluid, pH 1.3, pepsin 0.2 mg/mL stock, read-out: SGF t1/2
Method: sCT and its analogues were evaluated for their degradation in simulated gastric fluid (SGF). The stock solution of each analogue was prepared by dissolving 2 mg of the peptide in 1 mL water. The stock solution of pepsin enzyme was prepared by dissolving 5 mg of pepsin in 5 mL of 10 mM HCl (1 mg/mL), and then was diluted to a 0.2 mg/mL with 10 mM HCl. 7 For degradation, 34 μL of pepsin (0.2 mg/mL) was added to 100 μL of peptide (2 mg/mL) at pH 1.3 and the reaction incubated at 37° C. To monitor the degradation, 10 μL of the reaction aliquots were taken and quenched with 10 μL of 10 mM NaOH every 30 min for several hours and analyzed by HPLC using XSelect C18 column ([…], 130 A, 4.6×150 mm) with a gradient of 5-70% of 0.1% TFA in MeCN over 20 min with monitoring at 220 nm.

[3] = Circular dichroism analysis, percent α-helicity; format: physicochemical; conditions: 10 mM phosphate buffer pH 7, SDS; for % α helicity: 10-30 μM peptide, 2 h folding
Method: Following synthesis of the calcitonin analogues, the helicity of the calcitonin analogues was assessed by circular dichroism analysis. Far ultraviolet spectra (FIG. 6) were obtained from 195-260 nm on J-180 spectropolarimeter (Jasco) using 10-30 μM of sCT and all analogues in 10 mM phosphate buffer pH 7 and in the presence of sodium dodecyl sulphate (SDS), which were left for 2 h to allow folding. Each spectrum represents the average of 3 scans, and the mean residue ellipticity (θMRE) was calculated according to the following equation: […]
Percentage helicity of peptides as presented in Table 2 was calculated according to the following equation (Sommese, et al. 2010): […]
where n is the number of amino acids in the peptide.

[4] = molecular target: T1, calcitonin receptor (CTR); experiment: Ca^2+ concentration assay, HEK293 CALCR-HiTSeeker cell line; format: cell-based; parameters: expressed in transfected cells; conditions: HEK293 CALCR-HiTSeeker cells
[5] = Degradation in simulated intestinal fluid (SIF); conditions: pH 6.8, 37 °C

| EC50 ([1]; read-out: cAMP EC50) [µM] | EC50 ([1]; read-out: cAMP EC50 (bound)) [µM] | half-life [2] [min] | helicity retained following cyclization [3] | % α helicity [3] [%] | EC50 ([4]; read-out: Ca^2+ EC50) [µM] | EC50 ([4]; read-out: Ca^2+ EC50 (bound)) [µM] | cAMP EC50 / potency [1] | SGF t1/2 ([2]; pepsin 0.2 mg/mL stock) [min] | half-life in SGF relative to sCT ([2]; pepsin, vs sCT) | stability in SIF compared to sCT ([5]; pancreatin, vs sCT) | half-life ([5]; simulated intestinal fluid, pH 6.8, SIF t1/2, pancreatin 2 mg/mL stock) [min] | Ca^2+ EC50 / efficacy [4] | SMILES |
| --- | --- | --- | --- | --- | --- | --- | --- | --- | --- | --- | --- | --- | --- |
| 1.67 ± 0.06 | > 1 | 33.5 ± 0.2 | retain the high degree of helicity | 98.5 | 7.3 ± 0.7 | > 1 |  |  |  |  |  |  | CC(C)C[C@H](NC(=O)[C@H](CCCCN)NC(=O)CNC(=O)[C@H](CC(C)C)NC(=O)[C@@H](NC(=O)[C@@H]1CSCSC[C@H](N)C(=O)N[C@@H](CO)C(=O)N[C@@H](CC(N)=O)C(=O)N[C@@H](CC(C)C)C(=O)N[C@@H](CO)C(=O)N[C@@H]([C@@H](C)O)C(=O)N1)C(C)C)C(=O)N[C@@H](CO)C(=O)N[C@@H](CCC(N)=O)C(=O)N[C@@H](CCC(=O)O)C(=O)N[C@@H](CC(C)C)C(=O)N[C@@H](Cc1c[nH]cn1)C(=O)N[C@@H](CCCCN)C(=O)N[C@@H](CC(C)C)C(=O)N[C@@H](CCC(N)=O)C(=O)N[C@H](C(=O)N[C@@H](Cc1ccc(O)cc1)C(=O)N1CCC[C@H]1C(=O)N[C@@H](CCCNC(=N)N)C(=O)N[C@H](C(=O)N[C@@H](CC(N)=O)C(=O)N[C@H](C(=O)NCC(=O)N[C@@H](CO)C(=O)NCC(=O)N[C@H](C(=O)N1CCC[C@H]1C(N)=O)[C@@H](C)O)[C@@H](C)O)[C@@H](C)O)[C@@H](C)O [MT-CT] |
|  |  | 47.3 ± 1.9 |  | 62.9 |  |  |  |  |  |  |  |  | CC(C)C[C@H](NC(=O)[C@H](CCCCN)NC(=O)CNC(=O)[C@H](CC(C)C)NC(=O)[C@@H](NC(=O)[C@@H]1CSSC[C@H](N)C(=O)N[C@@H](CO)C(=O)N[C@@H](CC(N)=O)C(=O)N[C@@H](CC(C)C)C(=O)N[C@@H](CO)C(=O)N[C@@H]([C@@H](C)O)C(=O)N1)C(C)C)C(=O)N[C@@H](CO)C(=O)N[C@@H](CCC(N)=O)C(=O)N[C@H]1CCC(=O)NCCCC[C@@H](C(=O)N[C@@H](CC(C)C)C(=O)N[C@@H](CCC(N)=O)C(=O)N[C@H](C(=O)N[C@@H](Cc2ccc(O)cc2)C(=O)N2CCC[C@H]2C(=O)N[C@@H](CCCNC(=N)N)C(=O)N[C@H](C(=O)N[C@@H](CC(N)=O)C(=O)N[C@H](C(=O)NCC(=O)N[C@@H](CO)C(=O)NCC(=O)N[C@H](C(=O)N2CCC[C@H]2C(N)=O)[C@@H](C)O)[C@@H](C)O)[C@@H](C)O)[C@@H](C)O)NC(=O)[C@H](Cc2c[nH]cn2)NC(=O)[C@H](CC(C)C)NC1=O [CT(E15-K18)] |
| 0.0476 ± 0.0241 |  | 190 | retain the high degree of helicity | 93.7 | 0.166 ± 0.0348 |  | EC50 in the nanomolar range | 191.2 ± 66.1 | five-fold longer half-life | did not exhibit any improvements | 7.1 ± 0.7 | similar | CC(C)C[C@@H]1NC(=O)[C@@H](NC(=O)CNC(=O)[C@H](CC(C)C)NC(=O)[C@@H](NC(=O)[C@@H]2CSSC[C@H](N)C(=O)N[C@@H](CO)C(=O)N[C@@H](CC(N)=O)C(=O)N[C@@H](CC(C)C)C(=O)N[C@@H](CO)C(=O)N[C@@H]([C@@H](C)O)C(=O)N2)C(C)C)CCCCNCc2cc(ccc2O)C[C@@H](C(=O)N2CCC[C@H]2C(=O)N[C@@H](CCCNC(=N)N)C(=O)N[C@H](C(=O)N[C@@H](CC(N)=O)C(=O)N[C@H](C(=O)NCC(=O)N[C@@H](CO)C(=O)NCC(=O)N[C@H](C(=O)N2CCC[C@H]2C(N)=O)[C@@H](C)O)[C@@H](C)O)[C@@H](C)O)NC(=O)[C@H]([C@@H](C)O)NC(=O)[C@H](CCC(N)=O)NC(=O)[C@H](CC(C)C)NC(=O)[C@H](CCCCN)NC(=O)[C@H](Cc2c[nH]cn2)NC(=O)[C@H](CC(C)C)NC(=O)[C@H](CCC(=O)O)NC(=O)[C@H](CCC(N)=O)NC(=O)[C@H](CO)NC1=O [KaY-1] |
